Results on twelve compounds are retold here after article PMC8269059, “Glycyrrhizin Derivatives Suppress Cancer Chemoresistance by Inhibiting Progesterone Receptor Membrane Component 1” (Cancers, 2021).

The target in experiment [1] is T1, apo-PGRMC1 (Homo sapiens, UniProt O00264).
T1 construct: human PGRMC1 intracellular domain residues 43-195; GST (N, cleaved yes); made in house; host or cells: E. coli BL21 (DE3)
Put plainly: ITC binding to apo-PGRMC1. Particulars: apo-monomer form. From the text:
Bacterial expression vectors pGEX-PGRMC1 (human PGRMC1 intracellular domain residues 43-195) and mammalian FLAG-tagged expression vector pCMV-FLAG-PGRMC1 (full-length) were constructed as described previously. Expression vectors for PGRMC1 point mutants were generated by site-directed mutagenesis with PCR. For construction of HMGB1 expression vector, human HMGB1 full-length cDNA was cloned from cDNA library of HCT116 cells using the primers (Forward: 5′-[…]-3′, Reverse: 5′-[…]-[…]-3′), digested with Bam HI and Sal I, and then ligated into pGEX6P1.
Expression vectors (pGEX-PGRMC1 (residues 43-195) or pGEX-HMGB1) were transformed into BL21 (DE3) competent E. coli cells, and the cells incubated in LB medium with ampicillin at 37 °C until the OD600 reached 0.8. Protein expression was induced by adding 1 mM isopropyl-β-thiogalactopyranoside (IPTG) and incubating at 37 °C for 4 h. […]
ITC experiments were performed at 298 K with ITC-Buffer (50 mM phosphate [pH 7.0]) using a MicroCal iTC200 (Malvern Panalytical, Malvern, UK). […] Binding isotherms were analyzed using SEDPHAT [35]. The binding of AG205 to apo- or heme-PGRMC1 (100 μM) was analyzed using a concentration of 3 mM containing 1% DMSO. […]

The target of experiment [2] is T2, heme-dimerized PGRMC1 (Homo sapiens, UniProt O00264).
T2 construct: human PGRMC1 intracellular domain residues 43-195; GST (N, cleaved yes); made in house; host or cells: E. coli BL21 (DE3)
Put plainly: ITC binding to heme-dimerized PGRMC1. Particulars: ITC; for KD / Kd: 298 K, 50 mM phosphate pH 7.0, heme-dimerized PGRMC1 (WT); for TΔS / ΔG / ΔH: heme-dimerized PGRMC1 (WT).

Experiment [3] deals with HCT116 cells. Put plainly: Chemosensitivity MTT assay in HCT116 cells. It counts as cell-based, human. The conditions noted are these: for Anti-proliferative / anti-cancer effect with anti-cancer agents: HCT116, MTT, with erlotinib or CDDP, compared with GL; for IC50: Homo sapiens, HCT-116, HCT116 cell viability, MTT.
The subject of experiment [4] is HCT116 cells xenograft. As to the kind of experiment: HCT116 xenograft in nude mice. It counts as in vivo, mouse. Particulars: i.p. twice a week, 22 days, CDDP 2 mg/kg, GL 400 mg/kg, vs control. How it is done: All protocols for animal experiments in this study were approved by the Experimental Animal Committee of Keio University School of Medicine (approval number: 08024-(13), approval date: 30 September 2020). HCT116 cells (2 × 10^6 cells/mouse) with half of Matrigel (Corning, NY, USA) were transplanted subcutaneously into the flank of 7-week-old nude mice. Four days after the transplantation, tumor size was measured in three dimensions with calipers and grouped by tumor volume. CDDP (2 mg/kg), GL (400 mg/kg), or GlucoGL (100 mg/kg) were administered to the mice intraperitoneally, and the tumor volume was measured twice a week for 22 days.

For experiment [5], the system named is GFP-fused PGRMC1 protein partially purified from granulosa cells. The conditions noted are these: competitive binding with labeled-progesterone; cited from earlier work.
The mark [6] stands for this setting: with CDDP (10 µM), read-out: IC50 CDDP.
Setting [7] is: with erlotinib (20 µM), read-out: IC50 Erlotinib.

Structures are written as SMILES. Several values for one entry are separate records, joined by “and”; a condition that tells them apart may be missing. Identical values can stand only once. Entries after “also recorded” stand apart in the source; their conditions may differ. Like-named read-outs stand apart in the source and are kept apart here.

T2 sequence (O00264 43-195): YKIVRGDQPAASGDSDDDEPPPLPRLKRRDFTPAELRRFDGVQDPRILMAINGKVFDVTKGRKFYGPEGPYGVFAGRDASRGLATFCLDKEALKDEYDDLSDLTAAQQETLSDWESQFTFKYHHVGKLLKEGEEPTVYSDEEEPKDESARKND
T1 sequence (O00264 43-195): as above

For the compound `Cc1ccc2c(c1)[C@H]1CN(C)CC[C@H]1N2C(=O)CSc1nnnn1-c1ccc(Cl)cc1` [AG205], the “Binding to apo-PGRMC1” value in experiment [1] was “no binding activity; also recorded: did not observe AG205 binding”. The KD result in experiment [2] is recorded as “no binding activity; also recorded: did not observe AG205 binding”.
Broadly, the Kd is the concentration at which binding is half-saturated. The term IC50 denotes the midpoint of a concentration-inhibition curve. On to `CC1(C(=O)O)CCC2(C)CCC3(C)C(=CC(=O)C4C5(C)CCC(OC6OC(C(=O)O)C(O)C(O)C6OC6OCC(O)(CO)C6O)C(C)(C)C5CCC43C)C2C1` (centres unmarked) [Apioglycyrrhizin], for which, in experiment [2], the Kd came out at 4.85 µM, the TΔS is 6.18 K·kcal/mol, the ΔG was -7.26 kcal/mol and the ΔH is -1.08 kcal/mol. Besides, the “Anti-proliferative / anti-cancer effect with anti-cancer agents” value (from here on “Anti-proliferative / anti-cancer effect”) in experiment [3] is recorded as “potent anti-cancer effects”. In addition, in experiment [3] (setting [6]), the IC50 stood at 35.1 µM. Further, the IC50 in experiment [3] (setting [7]) was 62.5 µM.
For `CC1(C(=O)O)CCC2(C)CCC3(C)C(=CC(=O)C4C5(C)CCC(OC6OC(C(=O)O)C(O)C(O)C6OC6OCC(O)C(O)C6O)C(C)(C)C5CCC43C)C2C1` (centres unmarked) [Araboglycyrrhizin], in experiment [2], the affinity, expressed as Kd, was 8.46 µM; the TΔS worked out at 5.90 K·kcal/mol; the ΔG was -6.93 kcal/mol; the ΔH is -1.03 kcal/mol. Further, the “Anti-proliferative / anti-cancer effect” value in experiment [3] is reported as “potent anti-cancer effects”. Besides, the IC50 in experiment [3] (setting [6]) worked out at 26.6 µM. Further, in experiment [3] (setting [7]), the IC50 turned out to be 35.3 µM.
In the case of `[NH2][Pt]([NH2])([Cl])[Cl]` [CDDP, cisplatin], the “Tumor volume, administered individually” value in experiment [4] is recorded as “no differences in tumor volume”.
Turning to `CC1(C)[C@@H](OC(=O)CCC(=O)O)CC[C@]2(C)[C@H]3C(=O)C=C4[C@@H]5C[C@@](C)(C(=O)O)CC[C@]5(C)CC[C@@]4(C)[C@]3(C)CC[C@@H]12` [Carbenoxolone], the KD entry in experiment [2] is given as “No Binding”. In experiment [3], the “Anti-proliferative / anti-cancer effect” value is listed as “weaker anti-proliferative effects”.
Take `CC1(C)[C@@H](O)CC[C@]2(C)[C@H]3C(=O)C=C4[C@@H]5C[C@@](C)(C(=O)O)CC[C@]5(C)CC[C@@]4(C)[C@]3(C)CC[C@@H]12` [Glycyrrhetinic acid (GA), Glycyrrhetinic acid]: the KD entry is given as “Weak Binding” in experiment [2] and “did not detect significant binding” in experiment [2] (listed as GA).
For `CC1(C(=O)O)CCC2(C)CCC3(C)C(=CC(=O)C4C5(C)CCC(OC6OC(C(=O)O)C(O)C(O)C6O)C(C)(C)C5CCC43C)C2C1` (centres unmarked) [Glycyrrhetinic acid-3-O-mono-glucuronide], in experiment [2], the Kd is 9.55 µM, the TΔS is listed as 6.23 K·kcal/mol, the ΔG is -6.85 kcal/mol and the ΔH was -0.62 kcal/mol. Besides, in experiment [3] (setting [6]), the IC50 was found to be 41.2 µM. Besides, the IC50 in experiment [3] (setting [7]) amounted to 50.5 µM.
As for `CC1(C(=O)O)CCC2(C)CCC3(C)C(=CC(=O)C4C5(C)CCC(OC6OC(C(=O)O)C(O)C(O)C6OC6OC(C(=O)O)C(O)C(O)C6O)C(C)(CO)C5CCC43C)C2C1` (centres unmarked) [Licorice-saponin G2], in experiment [2], the Kd worked out at 128 µM, the TΔS is listed as 4.08 K·kcal/mol, the ΔG is -5.31 kcal/mol and the ΔH is -1.23 kcal/mol. In experiment [3], the “Anti-proliferative / anti-cancer effect” value is reported as “weaker anti-proliferative effects”.
With `CC1(C(=O)O)CCC2(C)CCC3(C)C(=CC(=O)C4C5(C)CCC(OC6OC(C(=O)O)C(O)C(O)C6OC6OC(C(=O)O)C(O)C(O)C6O)C(C)(C)C5CCC43C)C2C1` (centres unmarked) [Licorice-saponin H2], the KD entry in experiment [2] is listed as “No Binding”. Also, in experiment [3], the “Anti-proliferative / anti-cancer effect” value is “weaker anti-proliferative effects”.
The matching figures for `CC12CCC3(C)C(=CC(=O)C4C5(C)CCC(OC6OC(C(=O)O)C(O)C(O)C6OC6OC(C(=O)O)C(O)C(O)C6O)C(C)(C)C5CCC43C)C1CC(C)(C(=O)O)C(O)C2` (centres unmarked) [Macedonoside A]: “No Binding” and “weaker anti-proliferative effects”.
With `CC(=O)[C@H]1CC[C@H]2[C@@H]3CCC4=CC(=O)CC[C@]4(C)[C@H]3CC[C@]12C` [Progesterone], in experiment [2], the Kd was 815 µM and 816 µM; the ΔG is -4.22 kcal/mol; the ΔH was -23.26 kcal/mol. In experiment [5], the Kd was 0.035 µM.
As for `CC1OC(OC2C(OC3C(OC4CCC5(C)C(CCC6(C)C5C(=O)C=C5C7CC(C)(C(=O)O)CCC7(C)CCC56C)C4(C)C)OC(C(=O)O)C(O)C3O)OC(CO)C(O)C2O)C(O)C(O)C1O` (centres unmarked) [Rhaoglucoglycyrrhizin], in experiment [2], the dissociation constant (Kd) is 1.08 µM, the TΔS is on record as 6.08 K·kcal/mol, the ΔG was -8.15 kcal/mol and the ΔH is -2.07 kcal/mol. Moreover, in experiment [3], the “Anti-proliferative / anti-cancer effect” value was “potent anti-cancer effects”. Besides, the IC50 in experiment [3] (setting [6]) was determined as 17.2 µM. In addition, the IC50 in experiment [3] (setting [7]) was 19.1 µM.
